The values that follow come from patent US20260258035A1, “FIVE-MEMBERED AND SIX-MEMBERED NITROGEN-CONTAINING COMPOUND, AND INTERMEDIATE, PREPARATION METHOD AND USE THEREOF” (HANGZHOU SYNRX THERAPEUTICS BIOMEDICAL TECHNOLOGY CO., LTD., priority 2022, published 2026).

The structures appear in SMILES notation.

Assay [1] deals with HCC1806. Put plainly: Cell viability assay (CellTiter-Glo). The class given is cell-based, Human. Conditions: Homo sapiens, HCC1806, 168 h, HCC1806, 7 days, CellTiter-Glo; read-out: IC50 (nM) in cell viability assay. For orientation: In ATP-based viability assays light output follows the ATP content of the culture.
Assay [2] deals with PARG (Homo sapiens, UniProt Q86W56). The experiment in a line: Biochemical assay (PARG, TFMU-ADPr substrate). Conditions: PARG, TFMU-ADPr substrate.
PARG, sequence (Q86W56 whole entry): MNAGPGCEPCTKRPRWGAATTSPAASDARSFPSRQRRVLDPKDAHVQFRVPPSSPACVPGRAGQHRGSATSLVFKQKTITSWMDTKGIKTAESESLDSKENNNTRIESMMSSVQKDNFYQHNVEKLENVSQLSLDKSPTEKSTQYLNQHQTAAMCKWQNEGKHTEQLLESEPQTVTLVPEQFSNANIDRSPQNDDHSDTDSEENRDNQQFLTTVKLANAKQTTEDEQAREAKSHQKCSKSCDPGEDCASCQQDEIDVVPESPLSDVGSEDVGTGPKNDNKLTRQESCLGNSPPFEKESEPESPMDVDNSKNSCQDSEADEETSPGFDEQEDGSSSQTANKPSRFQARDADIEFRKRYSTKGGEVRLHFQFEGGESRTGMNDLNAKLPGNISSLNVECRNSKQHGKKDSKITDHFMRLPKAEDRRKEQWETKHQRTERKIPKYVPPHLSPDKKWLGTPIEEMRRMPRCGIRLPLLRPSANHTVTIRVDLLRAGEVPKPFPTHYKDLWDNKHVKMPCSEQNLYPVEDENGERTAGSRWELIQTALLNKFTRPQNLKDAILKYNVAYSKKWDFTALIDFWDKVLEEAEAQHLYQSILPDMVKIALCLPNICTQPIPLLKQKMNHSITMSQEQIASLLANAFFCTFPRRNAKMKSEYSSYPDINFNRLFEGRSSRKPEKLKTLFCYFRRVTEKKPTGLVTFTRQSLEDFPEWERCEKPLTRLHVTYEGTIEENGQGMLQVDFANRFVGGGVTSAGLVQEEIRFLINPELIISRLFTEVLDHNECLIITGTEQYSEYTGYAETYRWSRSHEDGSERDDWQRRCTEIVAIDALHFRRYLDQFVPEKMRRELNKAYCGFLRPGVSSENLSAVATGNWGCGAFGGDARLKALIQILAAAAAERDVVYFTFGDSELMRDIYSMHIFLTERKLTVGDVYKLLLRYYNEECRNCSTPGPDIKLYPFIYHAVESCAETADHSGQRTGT

As a reminder, the IC50 is the point on the concentration scale where inhibition reaches its midpoint. Turning to `C[C@@H]1CN(c2cc(S(=O)(=O)NC3(C#N)CC3)cn3c(-c4nnc(C(F)F)s4)cnc23)CCN1C(=O)C1(C)CC1` [Example 204, (R)-N-(1-cyanocyclopropyl)-3-(5-(difluoromethyl)-1,3,4-thiadiazol-2-yl)-8-(3-methyl-4-(1-methylcyclopropane-1-carbonyl)piperazin-1-yl)imidazo[1,2-a]pyridine-6-sulfonamide], the IC50 in assay [1] turned out to be 360 nM; in assay [2] it was 36.3 nM.
`CC(C)C(=O)N1CCN(c2cc(S(=O)(=O)NC3(C#N)CC3)cn3c(-c4nnc(C(F)(F)F)s4)ncc23)C[C@H]1C` [Example 205, (R)-N-(1-cyanocyclopropyl)-8-(4-isobutyryl-3-methylpiperazin-1-yl)-3-(5-(trifluoromethyl)-1,3,4-thiadiazol-2-yl)imidazo[1,5-a]pyridine-6-sulfonamide]: the figures for the IC50 in assay [1] and in assay [2] were 699 nM and 22.9 nM, respectively.
As to `CC(C)C(=O)N1CCN(c2cc(S(=O)(=O)NC3(C#N)CC3)cn3c(-c4nnc(C(F)F)s4)cnc23)C[C@H]1C` [Example 206, (R)-N-(1-cyanocyclopropyl)-3-(5-(difluoromethyl)-1,3,4-thiadiazol-2-yl)-8-(4-isobutyryl-3-methylpiperazin-1-yl)imidazo[1,2-a]pyridine-6-sulfonamide], the IC50 came out at 1180 nM in assay [1] and 21.9 nM in assay [2].
For the compound `CC(C)C(=O)N1CCN(c2cc(S(=O)(=O)NC3(C#N)CC3)cn3c(-c4nnc(C(F)(F)F)s4)cnc23)CC1` [Example 207, N-(1-cyanocyclopropyl)-8-(4-isobutyrylpiperazin-1-yl)-3-(5-(trifluoromethyl)-1,3,4-thiadiazol-2-yl)imidazo[1,2-a]pyridine-6-sulfonamide], the IC50 in assay [1] was 1200 nM; in assay [2] it was 39.8 nM.
In the case of `CC(C)C(=O)N1CCN(c2cc(S(=O)(=O)NC3CC3)cn3c(-c4nnc(C(F)(F)F)s4)cnc23)CC1` [Example 208, N-cyclopropyl-8-(4-isobutyrylpiperazin-1-yl)-3-(5-(trifluoromethyl)-1,3,4-thiadiazol-2-yl)imidazo[1,2-a]pyridine-6-sulfonamide], the IC50 in assay [1] worked out at 3350 nM; in assay [2], 110 nM.
In the case of `N#CC1(NS(=O)(=O)c2cc(N3CCC4(CC3)COC4)c3cnc(-c4nnc(C(F)(F)F)s4)n3c2)CC1` [Example 209, N-(1-cyanocyclopropyl)-8-(2-oxa-7-azaspiro[3.5]nonan-7-yl)-3-(5-(trifluoromethyl)-1,3,4-thiadiazol-2-yl)imidazo[1,5-a]pyridine-6-sulfonamide], the results for the IC50 in assay [1] and in assay [2] were 765 nM and 60.3 nM, respectively.
In the same order, the values of `CC(C)C(=O)N1CCN(c2cc(S(=O)(=O)NC3CC3)cn3c(-c4nnc(C(F)(F)F)s4)ncc23)CC1` [Example 210, N-cyclopropyl-8-(4-isobutyrylpiperazin-1-yl)-3-(5-(trifluoromethyl)-1,3,4-thiadiazol-2-yl)imidazo[1,5-a]pyridine-6-sulfonamide] are 929 nM and 83.2 nM.
In the same order, the values of `COc1ccc(C(=O)/C=C/C(=O)N2CCN(c3cc(S(=O)(=O)NC4(C#N)CC4)cn4c(-c5nnc(C(F)(F)F)s5)ncc34)CC2)cc1` [Example 211, (E)-N-(1-cyanocyclopropyl)-8-(4-(4-(4-methoxyphenyl)-4-oxobut-2-enoyl)piperazin-1-yl)-3-(5-(trifluoromethyl)-1,3,4-thiadiazol-2-yl)imidazo[1,5-a]pyridine-6-sulfonamide] are 222 nM and 209 nM.
The corresponding values for `CN(C)C(=O)C1CCN(c2cc(S(=O)(=O)NC3(C#N)CC3)cn3c(-c4nnc(C(F)F)s4)ncc23)CC1` [Example 212, 1-(6-(N-(1-cyanocyclopropyl)sulfamoyl)-3-(5-(difluoromethyl)-1,3,4-thiadiazol-2-yl)imidazo[1,5-a]pyridin-8-yl)-N,N-dimethylpiperidine-4-carboxamide] are 3000 nM and 110 nM.
In the case of `N#CC1(NS(=O)(=O)c2cc(N3CCC(n4cncn4)CC3)c3cnc(-c4nnc(C(F)(F)F)s4)n3c2)CC1` [Example 213, 8-(4-(1H-1,2,4-triazol-1-yl)piperidin-1-yl)-N-(1-cyanocyclopropyl)-3-(5-(trifluoromethyl)-1,3,4-thiadiazol-2-yl)imidazo[1,5-a]pyridine-6-sulfonamide], the 50% inhibitory concentration (IC50) in assay [1] was determined as 1200 nM; in assay [2], 31.6 nM.
With `CN(C)C(=O)C1CCN(c2cc(S(=O)(=O)NC3(C#N)CC3)cn3c(-c4nnc(C(F)(F)F)s4)ncc23)CC1` [Example 214, 1-(6-(N-(1-cyanocyclopropyl)sulfamoyl)-3-(5-(trifluoromethyl)-1,3,4-thiadiazol-2-yl)imidazo[1,5-a]pyridin-8-yl)-N,N-dimethylpiperidine-4-carboxamide], the IC50 in assay [1] came out at 4000 nM; in assay [2], 174 nM.
For the compound `CC(C)S(=O)(=O)N1CCN(c2cc(S(=O)(=O)NC3CC3)cn3c(-c4nnc(C(F)(F)F)s4)ncc23)CC1` [Example 215, N-cyclopropyl-8-(4-(isopropylsulfonyl)piperazin-1-yl)-3-(5-(trifluoromethyl)-1,3,4-thiadiazol-2-yl)imidazo[1,5-a]pyridine-6-sulfonamide], the values for the IC50 in assay [1] and in assay [2] were 1500 nM and 69.2 nM, respectively.
Consider `CC(=O)N1CCN(c2cc(S(=O)(=O)NC3(C#N)CC3)cn3c(-c4nnc(C(F)(F)F)s4)ncc23)C[C@H]1C` [Example 216, (R)-8-(4-acetyl-3-methylpiperazin-1-yl)-N-(1-cyanocyclopropyl)-3-(5-(trifluoromethyl)-1,3,4-thiadiazol-2-yl)imidazo[1,5-a]pyridine-6-sulfonamide], for which the IC50 was found to be 2340 nM in assay [1] and 31.6 nM in assay [2].
With `O=C(C1COC1)N1CCN(c2cc(S(=O)(=O)NC3CC3)cn3c(-c4nnc(C(F)(F)F)s4)ncc23)CC1` [Example 217, N-cyclopropyl-8-(4-(oxetane-3-carbonyl)piperazin-1-yl)-3-(5-(trifluoromethyl)-1,3,4-thiadiazol-2-yl)imidazo[1,5-a]pyridine-6-sulfonamide], the results for the IC50 in assay [1] and in assay [2] were 3070 nM and 66.1 nM, respectively.
As for `N#CC1(NS(=O)(=O)c2cc(N3CCC(n4ccnn4)CC3)c3cnc(-c4nnc(C(F)(F)F)s4)n3c2)CC1` [Example 218, 8-(4-(1H-1,2,3-triazol-1-yl)piperidin-1-yl)-N-(1-cyanocyclopropyl)-3-(5-(trifluoromethyl)-1,3,4-thiadiazol-2-yl)imidazo[1,5-a]pyridine-6-sulfonamide], the IC50 was found to be 1050 nM in assay [1] and 39.8 nM in assay [2].
The corresponding values for `O=C(C1CCN(c2cc(S(=O)(=O)NC3CC3)cn3c(-c4nnc(C(F)(F)F)s4)ncc23)CC1)N1CCC1` [Example 219, 8-(4-(azetidine-1-carbonyl)piperidin-1-yl)-N-cyclopropyl-3-(5-(trifluoromethyl)-1,3,4-thiadiazol-2-yl)imidazo[1,5-a]pyridine-6-sulfonamide] are 4610 nM and 100 nM.
The corresponding values for `N#CC1(NS(=O)(=O)c2cc(N3CCC4=C(COC4=O)C3)c3cnc(-c4nnc(C(F)(F)F)s4)n3c2)CC1` [Example 220, N-(1-cyanocyclopropyl)-8-(1-oxo-1,4,6,7-tetrahydrofuro[3,4-c]pyridin-5(3H)-yl)-3-(5-(trifluoromethyl)-1,3,4-thiadiazol-2-yl)imidazo[1,5-a]pyridine-6-sulfonamide] are 664 nM and 57.5 nM.
With `N#CC1(NS(=O)(=O)c2cc(N3CCC(c4nnco4)CC3)c3cnc(-c4nnc(C(F)(F)F)s4)n3c2)CC1` [Example 221, 8-(4-(1,3,4-oxadiazol-2-yl)piperidin-1-yl)-N-(1-cyanocyclopropyl)-3-(5-(trifluoromethyl)-1,3,4-thiadiazol-2-yl)imidazo[1,5-a]pyridine-6-sulfonamide], the IC50 was determined as 150 nM in assay [1] and 43.7 nM in assay [2].
`CC(C)C(=O)N1CCN(c2cc(S(=O)(=O)NC3(C#N)CC3)cn3c(-c4nnc(C(F)F)s4)ncc23)C[C@H]1CO` [Example 222, (S)-N-(1-cyanocyclopropyl)-3-(5-(difluoromethyl)-1,3,4-thiadiazol-2-yl)-8-(3-(hydroxymethyl)-4-isobutyrylpiperazin-1-yl)imidazo[1,5-a]pyridine-6-sulfonamide]: the IC50 stood at 1670 nM in assay [1] and 2.09 nM in assay [2].
As to `COC[C@@H]1CN(c2cc(S(=O)(=O)NC3(C#N)CC3)cn3c(-c4nnc(C(F)F)s4)ncc23)CCN1C(=O)C(C)C` [Example 223, (S)-N-(1-cyanocyclopropyl)-3-(5-(difluoromethyl)-1,3,4-thiadiazol-2-yl)-8-(4-isobutyryl-3-(methoxymethyl)piperazin-1-yl)imidazo[1,5-a]pyridine-6-sulfonamide], the values for the IC50 in assay [1] and in assay [2] were 250 nM and 1.45 nM, respectively.
`CC(C)(F)C(=O)N1CCN(c2cc(S(=O)(=O)NC3(C#N)CC3)cn3c(-c4nnc(C(F)(F)F)s4)ncc23)CC1` [Example 224, N-(1-cyanocyclopropyl)-8-(4-(2-fluoro-2-methylpropanoyl)piperazin-1-yl)-3-(5-(trifluoromethyl)-1,3,4-thiadiazol-2-yl)imidazo[1,5-a]pyridine-6-sulfonamide]: the IC50 in assay [1] stood at 1020 nM; in assay [2] it was 13.8 nM.
The corresponding values for `CC1(C(=O)N2CCN(c3cc(S(=O)(=O)NC4(C#N)CC4)cn4c(-c5nnc(C(F)(F)F)s5)ncc34)CC2)CC1` [Example 225, N-(1-cyanocyclopropyl)-8-(4-(1-methylcyclopropane-1-carbonyl)piperazin-1-yl)-3-(5-(trifluoromethyl)-1,3,4-thiadiazol-2-yl)imidazo[1,5-a]pyridine-6-sulfonamide] are 600 nM and 7.94 nM.
For the compound `N#CC1(NS(=O)(=O)c2cc(N3CCN(C(=O)C4COC4)CC3)c3cnc(-c4nnc(C(F)(F)F)s4)n3c2)CC1` [Example 226, N-(1-cyanocyclopropyl)-8-(4-(oxetane-3-carbonyl)piperazin-1-yl)-3-(5-(trifluoromethyl)-1,3,4-thiadiazol-2-yl)imidazo[1,5-a]pyridine-6-sulfonamide], the IC50 in assay [1] stood at 4850 nM; in assay [2], 26.3 nM.
